Experiment: xn = mol fraction of the nth substance listed
Details: 100.9 kPa

CC(=O)[O-].CC[NH2+]CC + O
Details	electrical conductivity [S/m]	speed of sound [m/s]	viscosity [mPa·s]
313.15 K, x1 = 0.351	–	–	19.49
313.15 K, x1 = 0.708	–	1494	–
313.15 K, x1 = 0.714	–	–	33.5
313.15 K, x1 = 0.835	–	1461	–
313.15 K, x1 = 0.84	–	–	34
315.65 K, x1 = 0.015	–	–	0.904
315.65 K, x1 = 0.055	–	–	1.89
315.65 K, x1 = 0.24	–	–	11.59
315.65 K, x1 = 0.351	–	–	17.57
315.65 K, x1 = 0.549	–	–	26.3
315.65 K, x1 = 0.84	–	–	30.6
318.15 K, x1 = 0.015	4.74	1608	0.862
318.15 K, x1 = 0.054	8.13	–	–
318.15 K, x1 = 0.055	–	1732	1.774
318.15 K, x1 = 0.119	–	1782	3.94
318.15 K, x1 = 0.12	5.91	–	–
318.15 K, x1 = 0.168	4.05	1758	6.11
318.15 K, x1 = 0.24	2.51	1699	10.54
318.15 K, x1 = 0.35	–	1636	–
318.15 K, x1 = 0.351	–	–	15.87
318.15 K, x1 = 0.549	–	1526	23.7
318.15 K, x1 = 0.55	0.767	–	–
318.15 K, x1 = 0.708	–	1479	–
318.15 K, x1 = 0.714	0.609	–	27.2
318.15 K, x1 = 0.835	–	1446	–
318.15 K, x1 = 0.838	0.498	–	–
318.15 K, x1 = 0.84	–	–	27.6
318.15 K, x1 = 0.945	0.476	–	–
320.65 K, x1 = 0.015	–	–	0.826
320.65 K, x1 = 0.055	–	–	1.67
320.65 K, x1 = 0.119	–	–	3.65
320.65 K, x1 = 0.168	–	–	5.63
320.65 K, x1 = 0.24	–	–	9.62
320.65 K, x1 = 0.351	–	–	14.41
320.65 K, x1 = 0.549	–	–	21.5
320.65 K, x1 = 0.714	–	–	24.6
320.65 K, x1 = 0.84	–	–	25
323.15 K, x1 = 0.015	–	1610	0.795
323.15 K, x1 = 0.055	–	1725	1.576
323.15 K, x1 = 0.119	–	1768	3.4
323.15 K, x1 = 0.168	–	1744	5.21
323.15 K, x1 = 0.24	–	1685	8.81
323.15 K, x1 = 0.35	–	1622	–
323.15 K, x1 = 0.351	–	–	13.12
323.15 K, x1 = 0.549	–	1512	19.55
323.15 K, x1 = 0.708	–	1464	–
323.15 K, x1 = 0.714	–	–	22.3
323.15 K, x1 = 0.835	–	1430	–
323.15 K, x1 = 0.84	–	–	22.7
325.65 K, x1 = 0.015	–	–	0.757
325.65 K, x1 = 0.055	–	–	1.489
325.65 K, x1 = 0.119	–	–	3.17
325.65 K, x1 = 0.168	–	–	4.82
325.65 K, x1 = 0.24	–	–	8.09
325.65 K, x1 = 0.351	–	–	11.97
325.65 K, x1 = 0.549	–	–	17.76
325.65 K, x1 = 0.714	–	–	20.3
325.65 K, x1 = 0.84	–	–	20.6
328.15 K, x1 = 0.055	–	–	1.411
328.15 K, x1 = 0.119	–	–	2.97
328.15 K, x1 = 0.168	–	–	4.48
328.15 K, x1 = 0.24	–	–	7.45
328.15 K, x1 = 0.351	–	–	10.96
328.15 K, x1 = 0.714	–	–	18.53
328.15 K, x1 = 0.84	–	–	18.78
330.65 K, x1 = 0.24	–	–	6.88
330.65 K, x1 = 0.351	–	–	10.06
330.65 K, x1 = 0.549	–	–	14.78
330.65 K, x1 = 0.714	–	–	16.94
330.65 K, x1 = 0.84	–	–	17.14
333.15 K, x1 = 0.015	7.37	–	0.666
333.15 K, x1 = 0.054	13.1	–	–
333.15 K, x1 = 0.055	–	–	1.273
333.15 K, x1 = 0.12	8.77	–	–
333.15 K, x1 = 0.168	5.75	–	3.89
333.15 K, x1 = 0.24	3.65	–	6.37
333.15 K, x1 = 0.353	2	–	–
333.15 K, x1 = 0.549	–	–	13.57
333.15 K, x1 = 0.714	0.802	–	15.52
333.15 K, x1 = 0.838	0.666	–	–
333.15 K, x1 = 0.945	0.65	–	–
335.65 K, x1 = 0.015	–	–	0.641
335.65 K, x1 = 0.055	–	–	1.213
335.65 K, x1 = 0.119	–	–	2.45
335.65 K, x1 = 0.24	–	–	5.91
335.65 K, x1 = 0.351	–	–	8.55
335.65 K, x1 = 0.549	–	–	12.48
335.65 K, x1 = 0.714	–	–	14.25
335.65 K, x1 = 0.84	–	–	14.39
338.15 K, x1 = 0.015	–	–	0.617
338.15 K, x1 = 0.055	–	–	1.159
338.15 K, x1 = 0.119	–	–	2.31
338.15 K, x1 = 0.168	–	–	3.4
338.15 K, x1 = 0.24	–	–	5.49
338.15 K, x1 = 0.351	–	–	7.91
338.15 K, x1 = 0.549	–	–	11.5
338.15 K, x1 = 0.714	–	–	13.11
338.15 K, x1 = 0.84	–	–	13.23
340.65 K, x1 = 0.015	–	–	0.595
340.65 K, x1 = 0.055	–	–	1.108
340.65 K, x1 = 0.119	–	–	2.18
340.65 K, x1 = 0.24	–	–	5.12
340.65 K, x1 = 0.351	–	–	7.33
340.65 K, x1 = 0.549	–	–	10.62
340.65 K, x1 = 0.714	–	–	12.08
340.65 K, x1 = 0.84	–	–	12.19
343.15 K, x1 = 0.015	–	–	0.574
343.15 K, x1 = 0.119	–	–	2.06
343.15 K, x1 = 0.168	–	–	3
343.15 K, x1 = 0.24	–	–	4.78
343.15 K, x1 = 0.351	–	–	6.81
343.15 K, x1 = 0.549	–	–	9.84
343.15 K, x1 = 0.714	–	–	11.16
343.15 K, x1 = 0.84	–	–	11.24
348.15 K, x1 = 0.007	3.01	–	–
348.15 K, x1 = 0.015	10.1	–	–
348.15 K, x1 = 0.054	16.6	–	–
348.15 K, x1 = 0.12	10.6	–	–
348.15 K, x1 = 0.168	7.47	–	–
348.15 K, x1 = 0.24	4.92	–	–
348.15 K, x1 = 0.945	1.09	–	–
363.15 K, x1 = 0.007	3.4	–	–
363.15 K, x1 = 0.015	12.9	–	–
363.15 K, x1 = 0.054	17.4	–	–
363.15 K, x1 = 0.12	11.6	–	–
363.15 K, x1 = 0.24	5.47	–	–
363.15 K, x1 = 0.353	3.65	–	–
363.15 K, x1 = 0.55	2.24	–	–
363.15 K, x1 = 0.714	1.67	–	–
363.15 K, x1 = 0.838	1.32	–	–

Reference: a compilation of properties of binary mixtures (doi:10.1016/j.jct.2020.106093)
